Measurements taken from PubChem BioAssay AID206 (DTP/NCI, 2004).
Values joined by “and” are separate entries in the source; they are usually repeats but may differ in a detail not shown here. Equal entries are not always repeated. Inconclusive results are not listed.

Test system: nude mice, HT29 intrarenal xenograft, tumor weight T/C
Test: NCI In Vivo Anticancer Drug Screen. Data for tumor model HT29;CX-1 Human Adenocarcinoma (MER+) (intrarenal inoculation) in NU/NU Swiss (nude) mice
Conditions: endpoint: mean tumor weight change, higher = larger tumour
Procedure, shortened: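 Mice with transplanted tumors are dosed with compound while controls get vehicle only. Survival or tumor burden is then assessed per group, and the treated value is expressed relative to control.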

[1] = dose: 6.25 mg/kg/injection, schedule: Q01DX010 (sc), vehicle: saline with Tween-80
[2] = dose: 400.0 mg/kg/injection, schedule: Q01DX010 (sc), vehicle: saline with Tween-80
[3] = dose: 100.0 mg/kg/injection, schedule: Q01DX010 (sc), vehicle: saline with Tween-80
[4] = dose: 200.0 mg/kg/injection, schedule: Q01DX010 (sc), vehicle: saline with Tween-80
[5] = dose: 75.0 mg/kg/injection, schedule: Q04DX004 (sc), vehicle: saline with Tween-80
[6] = dose: 150.0 mg/kg/injection, schedule: Q04DX004 (sc), vehicle: saline with Tween-80
[7] = dose: 300.0 mg/kg/injection, schedule: Q04DX004 (sc), vehicle: saline with Tween-80
[8] = dose: 600.0 mg/kg/injection, schedule: Q04DX004 (sc), vehicle: saline with Tween-80
[9] = dose: 300.0 mg/kg/injection, schedule: Q04DX004 (sc), vehicle: saline
[10] = dose: 400.0 mg/kg/injection, schedule: Q04DX004 (sc), vehicle: saline with Tween-80
[11] = dose: 800.0 mg/kg/injection, schedule: Q04DX004 (sc), vehicle: saline with Tween-80
[12] = dose: 1600.0 mg/kg/injection, schedule: Q04DX004 (sc), vehicle: saline with Tween-80
[13] = dose: 200.0 mg/kg/injection, schedule: Q04DX004 (sc), vehicle: saline with Tween-80
[14] = dose: 37.5 mg/kg/injection, schedule: Q04DX004 (sc), vehicle: saline with Tween-80
[15] = dose: 75.0 mg/kg/injection, schedule: Q04DX004 (sc), vehicle: saline

In the case of `CC(/C=N/N=C(N)N)=N\N=C(N)N`, the T/C (dose: 12.5 mg/kg/injection, schedule: Q01DX010 (sc), vehicle: water) is reported as 67 % of control.

With `CS(=O)(=O)OCCCCOS(C)(=O)=O` the T/C [1] was 121 % of control and the T/C (dose: 25.0 mg/kg/injection, schedule: Q01DX010 (sc), vehicle: saline with Tween-80) was 238 % of control.

In the case of `c1ccc2sc(SSN3CC4CCC(CC4)C3)nc2c1`, the T/C (dose: 50.0 mg/kg/injection, schedule: Q01DX010 (sc), vehicle: saline with Tween-80) is reported as 120 % of control and the T/C [2] is reported as 96 % of control.

`Clc1ccc(CN2COc3c(ccc4cccnc34)C2)cc1Cl` was tested, and the T/C [3] was 73 % of control and the T/C [2] was 60 % of control and 72 % of control.

`C[C@@H](CN1CC(=O)NC(=O)C1)N1CC(=O)NC(=O)C1` was tested, and the T/C [3] was 232 % of control and the T/C [4] was 46 % of control.

For `CC(=Nc1ccccc1)C1=C(O)C(Cc2ccccc2)NC1=O` (centres undefined), the T/C [5] was 66 % of control, the T/C [6] was 105 % of control and the T/C [7] was 43 % of control. The T/C [8] was 80 % of control.

For `C=CCc1cn(C2CC(O)C(CO)O2)c(=O)[nH]c1=O` (centres undefined), the T/C [9] was 71 % of control, the T/C (dose: 600.0 mg/kg/injection, schedule: Q04DX004 (sc), vehicle: saline) was 99 % of control and the T/C (dose: 1200.0 mg/kg/injection, schedule: Q04DX004 (sc), vehicle: saline) was 64 % of control. The T/C (dose: 2400.0 mg/kg/injection, schedule: Q04DX004 (sc), vehicle: saline) was 71 % of control.

For `Cc1ccccc1SSc1ccccc1C`, the T/C [3] was 62 % of control and the T/C [4] was 68 % of control.

For `COC1/C=C\C=C(/C)C(=O)NC2=CC(=O)C=C(C2=O)C(OC)C(C)CC(OC)C(OC)C(C)/C=C(/C)C1OC(N)=O` (centres undefined), the T/C (dose: 2.25 mg/kg/injection, schedule: Q04DX004 (sc), vehicle: Klucel (hydroxypropylcellulose) (HPC)) was 92 % of control and 95 % of control, the T/C (dose: 4.5 mg/kg/injection, schedule: Q04DX004 (sc), vehicle: Klucel (hydroxypropylcellulose) (HPC)) was 33 % of control and the T/C (dose: 9.0 mg/kg/injection, schedule: Q04DX004 (sc), vehicle: Klucel (hydroxypropylcellulose) (HPC)) was 4 % of control.

For `COc1cccc2c1C(=O)c1c(O)c3c(c(O)c1C2=O)C[C@@](O)(/C(CO)=N/NC(=O)c1ccc(Cl)c(Cl)c1)C[C@@H]3OC1CC(N)C(O)C(C)O1` (some centres undefined), the T/C (dose: 4.0 mg/kg/injection, schedule: Q01DX010 (sc), vehicle: water) was 226 % of control, the T/C (dose: 8.0 mg/kg/injection, schedule: Q01DX010 (sc), vehicle: water) was 88 % of control and the T/C (dose: 20.0 mg/kg/injection, schedule: Q04DX004 (sc), vehicle: water) was 113 % of control. The T/C (dose: 40.0 mg/kg/injection, schedule: Q04DX004 (sc), vehicle: water) was 59 % of control.

In the case of `O=S(=O)(O)O.[NH-]C1CCCCC1[NH-].[Pt+2]` (centres undefined), the T/C (dose: 0.62 mg/kg/injection, schedule: Q01DX010 (sc), vehicle: dextrose) is reported as 21 % of control.

With `CCOC(=O)[C@]1(Br)CC[C@@]1(Br)C(=O)OCC` the T/C [10] was 105 % of control, the T/C [11] was 93 % of control and the T/C [12] was 43 % of control.

For `COC(=O)CC(N)C(=O)O` (centres undefined), the T/C (dose: 225.0 mg/kg/injection, schedule: Q04DX004 (sc), vehicle: saline with Tween-80) was 103 % of control, the T/C (dose: 450.0 mg/kg/injection, schedule: Q04DX004 (sc), vehicle: saline with Tween-80) was 81 % of control and the T/C (dose: 900.0 mg/kg/injection, schedule: Q04DX004 (sc), vehicle: saline with Tween-80) was 69 % of control. For the same molecule, the T/C (dose: 1800.0 mg/kg/injection, schedule: Q04DX004 (sc), vehicle: saline with Tween-80) was 35 % of control.

In the case of `O=P1(N(CCCl)CCCl)NCCCO1` (centres undefined), the T/C (dose: 40.0 mg/kg/injection, schedule: Q04DX004 (ip), vehicle: saline) is reported as 75 % of control, the T/C (dose: 50.0 mg/kg/injection, schedule: Q01DX010 (sc), vehicle: saline) is reported as 58 % of control and the T/C (dose: 60.0 mg/kg/injection, schedule: Q04DX004 (ip), vehicle: saline) is reported as 53 % of control. The T/C (dose: 90.0 mg/kg/injection, schedule: Q04DX004 (ip), vehicle: saline) was 26 % of control.

`Nc1nc([Se])c2ncn(C3OC(CO)C(O)C3O)c2n1` (centres undefined) was tested, and the T/C (dose: 2.0 mg/kg/injection, schedule: Q01DX010 (sc), vehicle: saline) was 98 % of control, the T/C (dose: 8.0 mg/kg/injection, schedule: Q01DX010 (sc), vehicle: saline) was 242 % of control and the T/C (dose: 16.0 mg/kg/injection, schedule: Q01DX010 (sc), vehicle: saline) was 202 % of control.

In the case of `Cc1c2ccc3ccccc3c2c[n+]2ccccc12`, the T/C (dose: 3.75 mg/kg/injection, schedule: Q04DX004 (sc), vehicle: Klucel (hydroxypropylcellulose) (HPC)) is reported as 84 % of control, the T/C (dose: 7.5 mg/kg/injection, schedule: Q04DX004 (sc), vehicle: Klucel (hydroxypropylcellulose) (HPC)) is reported as 66 % of control and the T/C (dose: 15.0 mg/kg/injection, schedule: Q04DX004 (sc), vehicle: Klucel (hydroxypropylcellulose) (HPC)) is reported as 50 % of control. For the same molecule, the T/C (dose: 30.0 mg/kg/injection, schedule: Q04DX004 (sc), vehicle: Klucel (hydroxypropylcellulose) (HPC)) was 41 % of control.

In the case of `CC(=O)N(C)c1ccc(Nc2cc(C)[nH]c3ccc4ncnc4c23)cc1`, the T/C (dose: 50.0 mg/kg/injection, schedule: Q04DX004 (sc), vehicle: saline with Tween-80) is reported as 95 % of control, the T/C (dose: 100.0 mg/kg/injection, schedule: Q04DX004 (sc), vehicle: saline with Tween-80) is reported as 68 % of control and the T/C [13] is reported as 79 % of control.

For `COc1ccc(C(=O)c2no[n+]([O-])c2C(=O)c2ccc(OC)cc2)cc1`, the T/C [13] was 182 % of control, the T/C [10] was 117 % of control and the T/C [11] was 71 % of control. The T/C [12] was 83 % of control.

`CC1CC(C)CC(C)C(O)/C(C#N)=C/C=C/CC(C2CCCC2C(=O)O)OC(=O)CC(O)C(C)C1` (centres undefined) was tested, and the T/C (dose: 1.5 mg/kg/injection, schedule: Q04DX004 (sc), vehicle: Klucel (hydroxypropylcellulose) (HPC)) was 87 % of control, the T/C (dose: 3.0 mg/kg/injection, schedule: Q04DX004 (sc), vehicle: Klucel (hydroxypropylcellulose) (HPC)) was 76 % of control and the T/C (dose: 6.0 mg/kg/injection, schedule: Q04DX004 (sc), vehicle: Klucel (hydroxypropylcellulose) (HPC)) was 40 % of control. The T/C (dose: 12.0 mg/kg/injection, schedule: Q04DX004 (sc), vehicle: Klucel (hydroxypropylcellulose) (HPC)) was 69 % of control.

With `CCCCCCCCCCCCCC#CC(=O)O` the T/C [14] was 117 % of control and the T/C [7] was 104 % of control.

With `CN(CO)c1nc(N(C)CO)nc(N(C)CO)n1` the T/C (dose: 25.0 mg/kg/injection, schedule: Q01DX010 (sc), vehicle: saline) was 65 % of control and 81 % of control and the T/C (dose: 100.0 mg/kg/injection, schedule: Q01DX010 (sc), vehicle: saline) was 17 % of control.

With `CCOC1=Cc2c(oc3c(C(C)(C)C)cc(OCC)cc23)OC(C(C)(C)C)=C1` the T/C [14] was 79 % of control, the T/C [5] was 87 % of control and the T/C [6] was 256 % of control.

For `CN(C)CC(Cl)CCl` (centres undefined), the T/C [15] was 101 % of control, the T/C (dose: 150.0 mg/kg/injection, schedule: Q04DX004 (sc), vehicle: saline) was 117 % of control and the T/C [9] was 50 % of control.

For `Cc1cc(N(CC(C)Br)CC(C)Br)ccc1N=Nc1ccccc1C(=O)O` (centres undefined), the T/C (dose: 3.13 mg/kg/injection, schedule: Q01DX010 (sc), vehicle: saline with Tween-80) was 69 % of control, the T/C [1] was 18 % of control and the T/C (dose: 12.5 mg/kg/injection, schedule: Q01DX010 (sc), vehicle: saline with Tween-80) was 14 % of control.

`CCOC(=O)C(N)C[S][Sn]([CH3])([CH3])[Cl]` (centres undefined) was tested, and the T/C (dose: 18.75 mg/kg/injection, schedule: Q04DX004 (sc), vehicle: saline) was 169 % of control and the T/C [15] was 72 % of control.

For `CCCCCC#CC1OC12CCCCC2` (centres undefined), the T/C [6] was 74 % of control, the T/C [7] was 62 % of control and the T/C [8] was 77 % of control. For the same molecule, the T/C (dose: 1200.0 mg/kg/injection, schedule: Q04DX004 (sc), vehicle: saline with Tween-80) was 100 % of control.

For `O=C(NO)c1cc(O)c(O)c(O)c1`, the T/C (dose: 200.0 mg/kg/injection, schedule: Q04DX004 (sc), vehicle: water) was 83 % of control, the T/C (dose: 400.0 mg/kg/injection, schedule: Q04DX004 (sc), vehicle: water) was 60 % of control and the T/C (dose: 800.0 mg/kg/injection, schedule: Q04DX004 (sc), vehicle: water) was 56 % of control. For the same molecule, the T/C (dose: 1600.0 mg/kg/injection, schedule: Q04DX004 (sc), vehicle: water) was 71 % of control.
